Experimental findings from PMC3429506, “Screening for Novel LRRK2 Inhibitors Using a High-Throughput TR-FRET Cellular Assay for LRRK2 Ser935 Phosphorylation” (PLoS ONE, 2012) are described below.

The structures appear in SMILES notation. Read-outs that look alike come from different tables or passages of the source.

Series [1] deals with T1, LRRK2 A2016T/G2019S (Homo sapiens, UniProt Q5S007, A2016T/G2019S).
T1 construct: expressed in transfected cells
Description: Immunoprecipitation/Western analysis of LRRK2 phosphorylation in T-REx HEK293 cells expressing inhibitor desensitizing mutant. Format: cell-based. The following applies: 20 µM, Figure 6 IRM. The procedure:
Immunoblot analysis: BacMam LRRK2-GFP transduced U-2 OS or SH-SY5Y cells (10^7 cells) were left untreated or treated with 3 µM LRRK2-IN-I for 90 min. For lysate preparation, the cells were washed once with ice-cold PBS and lysed by addition of ice-cold lysis buffer (20 mM Tris-HCl, pH 7.4, 1% NP-40, 5 mM EDTA, 5 mM NaF, 150 mM NaCl, and 1∶100 of protease and phosphatase inhibitor cocktails). The lysate was cleared of debris by centrifugation. Equal amount of total protein was loaded onto each lane for SDS-PAGE (3–8% Tris Acetate). The proteins were transferred onto nitrocellulose membrane using the iBLOT® dry blotting system (Life Technologies) according to manufacturer’s protocol. The membranes were blocked and incubated with a primary antibody against LRRK2 (Cell Signaling Technologies), followed by incubation with alkaline phosphatase-conjugated secondary antibody (WesternBreeze® chromogenic Kit, Life Technologies). The blot was developed by using the chromogenic BCIP/NBT substrate (WesternBreeze® chromogenic Kit, Life Technologies). […] Two days post induction, cells were treated for 90 minutes in the presence of 20 µM of compound or DMSO vehicle control. Cells were rapidly lysed in ice cold lysis buffer 50 mM Tris/HCl, pH 7.5, 1 mM EGTA, 1 mM EDTA, […] 1 mM sodium orthovanadate, 10 mM sodium beta-glycerolphosphate, 50 mM NaF, 5 mM sodium pyrophosphate, 0.27 M sucrose, 1 mM benzamidine and 2 mM phenylmethanesulphonylfluoride (PMSF) and one tablet each complete protease inhibitor and PhosSTOP phosphatase inhibitor (Roche) and was supplemented with 1% (v/v) Triton X-100. GFP-LRRK2 was immunoprecipitated with GFP nanotrap beads (ChromoTek). Immunecomplexes were washed twice with lysis buffer supplemented with 300 mM NaCl and once with Buffer A (50 mM Tris/HCl, pH 7.5, 50 mM NaCl, 0.1 mM EGTA and 0.1% (v/v) 2-mercaptoethanol, and 0.27 M sucrose).

Series [2] relates to LRRK2-GFP. Description: Western blot analysis of LRRK2-GFP Ser935 phosphorylation in BacMam transduced SH-SY5Y cells. It is filed as cell-based, human. Conditions: LRRK2-IN-1 3 µM 90 min, wild-type, G2019S, R1441C, Figure 3A. The procedure: Immunoblot analysis: BacMam LRRK2-GFP transduced U-2 OS or SH-SY5Y cells (10^7 cells) were left untreated or treated with 3 µM LRRK2-IN-I for 90 min. For lysate preparation, the cells were washed once with ice-cold PBS and lysed by addition of ice-cold lysis buffer (20 mM Tris-HCl, pH 7.4, 1% NP-40, 5 mM EDTA, 5 mM NaF, 150 mM NaCl, and 1∶100 of protease and phosphatase inhibitor cocktails). The lysate was cleared of debris by centrifugation. Equal amount of total protein was loaded onto each lane for SDS-PAGE (3–8% Tris Acetate). The proteins were transferred onto nitrocellulose membrane using the iBLOT® dry blotting system (Life Technologies) according to manufacturer’s protocol. The membranes were blocked and incubated with a primary antibody against LRRK2 (Cell Signaling Technologies), followed by incubation with alkaline phosphatase-conjugated secondary antibody (WesternBreeze® chromogenic Kit, Life Technologies). The blot was developed by using the chromogenic BCIP/NBT substrate (WesternBreeze® chromogenic Kit, Life Technologies). […] Two days post induction, cells were treated for 90 minutes in the presence of 20 µM of compound or DMSO vehicle control. […]

Series [3] is described as follows: Cytotoxicity assay (resazurin-based cell viability). The following applies: human.
The target of series [4] is LRRK2 wild-type (Homo sapiens, UniProt Q5S007). Description: TR-FRET cellular assay for LRRK2 Ser935 phosphorylation, SH-SY5Y cells, BacMam LRRK2-GFP wild-type. Format: cell-based. Set-up: This high-throughput assay utilizes cells expressing full-length human LRRK2 with a C-terminal GFP tag (LRRK2-GFP); host or cells: SH-SY5Y cells transduced with BacMam. The procedure: U-2 OS cells are maintained in growth medium (McCoy’s 5A supplemented with 10% dialyzed FBS (dFBS), 10 mM HEPES, 0.1 mM NEAA, 1 mM Sodium Pyruvate, and 100 U/mL Penicillin/100 µg/mL Streptomycin). HEK293T cells are maintained in DMEM with 10% dFBS, 10 mM HEPES, 0.1 mM NEAA and 100 U/mL Penicillin/100 µg/mL Streptomycin. SH-SY5Y cells are maintained in DMEM/F-12 medium supplemented with 10% dFBS and 100 U/mL Penicillin/100 µg/mL Streptomycin. […] GIBCO® human neural stem cells (hNSCs) were propagated as an adherent culture in StemPro® NSC SFM according to the manufacturer’s recommended protocol (Life Technologies). For BacMam transduction of U-2 OS and HEK293T, cells were harvested, mixed with various amounts of BacMam LRRK2-GFP reagent (v/v) and plated onto 6-well plates. […] Cells were assayed in 384-well format (∼20,000 cells/well) 48 hours post-transduction as above.
Sequence of LRRK2 wild-type (Q5S007 whole entry): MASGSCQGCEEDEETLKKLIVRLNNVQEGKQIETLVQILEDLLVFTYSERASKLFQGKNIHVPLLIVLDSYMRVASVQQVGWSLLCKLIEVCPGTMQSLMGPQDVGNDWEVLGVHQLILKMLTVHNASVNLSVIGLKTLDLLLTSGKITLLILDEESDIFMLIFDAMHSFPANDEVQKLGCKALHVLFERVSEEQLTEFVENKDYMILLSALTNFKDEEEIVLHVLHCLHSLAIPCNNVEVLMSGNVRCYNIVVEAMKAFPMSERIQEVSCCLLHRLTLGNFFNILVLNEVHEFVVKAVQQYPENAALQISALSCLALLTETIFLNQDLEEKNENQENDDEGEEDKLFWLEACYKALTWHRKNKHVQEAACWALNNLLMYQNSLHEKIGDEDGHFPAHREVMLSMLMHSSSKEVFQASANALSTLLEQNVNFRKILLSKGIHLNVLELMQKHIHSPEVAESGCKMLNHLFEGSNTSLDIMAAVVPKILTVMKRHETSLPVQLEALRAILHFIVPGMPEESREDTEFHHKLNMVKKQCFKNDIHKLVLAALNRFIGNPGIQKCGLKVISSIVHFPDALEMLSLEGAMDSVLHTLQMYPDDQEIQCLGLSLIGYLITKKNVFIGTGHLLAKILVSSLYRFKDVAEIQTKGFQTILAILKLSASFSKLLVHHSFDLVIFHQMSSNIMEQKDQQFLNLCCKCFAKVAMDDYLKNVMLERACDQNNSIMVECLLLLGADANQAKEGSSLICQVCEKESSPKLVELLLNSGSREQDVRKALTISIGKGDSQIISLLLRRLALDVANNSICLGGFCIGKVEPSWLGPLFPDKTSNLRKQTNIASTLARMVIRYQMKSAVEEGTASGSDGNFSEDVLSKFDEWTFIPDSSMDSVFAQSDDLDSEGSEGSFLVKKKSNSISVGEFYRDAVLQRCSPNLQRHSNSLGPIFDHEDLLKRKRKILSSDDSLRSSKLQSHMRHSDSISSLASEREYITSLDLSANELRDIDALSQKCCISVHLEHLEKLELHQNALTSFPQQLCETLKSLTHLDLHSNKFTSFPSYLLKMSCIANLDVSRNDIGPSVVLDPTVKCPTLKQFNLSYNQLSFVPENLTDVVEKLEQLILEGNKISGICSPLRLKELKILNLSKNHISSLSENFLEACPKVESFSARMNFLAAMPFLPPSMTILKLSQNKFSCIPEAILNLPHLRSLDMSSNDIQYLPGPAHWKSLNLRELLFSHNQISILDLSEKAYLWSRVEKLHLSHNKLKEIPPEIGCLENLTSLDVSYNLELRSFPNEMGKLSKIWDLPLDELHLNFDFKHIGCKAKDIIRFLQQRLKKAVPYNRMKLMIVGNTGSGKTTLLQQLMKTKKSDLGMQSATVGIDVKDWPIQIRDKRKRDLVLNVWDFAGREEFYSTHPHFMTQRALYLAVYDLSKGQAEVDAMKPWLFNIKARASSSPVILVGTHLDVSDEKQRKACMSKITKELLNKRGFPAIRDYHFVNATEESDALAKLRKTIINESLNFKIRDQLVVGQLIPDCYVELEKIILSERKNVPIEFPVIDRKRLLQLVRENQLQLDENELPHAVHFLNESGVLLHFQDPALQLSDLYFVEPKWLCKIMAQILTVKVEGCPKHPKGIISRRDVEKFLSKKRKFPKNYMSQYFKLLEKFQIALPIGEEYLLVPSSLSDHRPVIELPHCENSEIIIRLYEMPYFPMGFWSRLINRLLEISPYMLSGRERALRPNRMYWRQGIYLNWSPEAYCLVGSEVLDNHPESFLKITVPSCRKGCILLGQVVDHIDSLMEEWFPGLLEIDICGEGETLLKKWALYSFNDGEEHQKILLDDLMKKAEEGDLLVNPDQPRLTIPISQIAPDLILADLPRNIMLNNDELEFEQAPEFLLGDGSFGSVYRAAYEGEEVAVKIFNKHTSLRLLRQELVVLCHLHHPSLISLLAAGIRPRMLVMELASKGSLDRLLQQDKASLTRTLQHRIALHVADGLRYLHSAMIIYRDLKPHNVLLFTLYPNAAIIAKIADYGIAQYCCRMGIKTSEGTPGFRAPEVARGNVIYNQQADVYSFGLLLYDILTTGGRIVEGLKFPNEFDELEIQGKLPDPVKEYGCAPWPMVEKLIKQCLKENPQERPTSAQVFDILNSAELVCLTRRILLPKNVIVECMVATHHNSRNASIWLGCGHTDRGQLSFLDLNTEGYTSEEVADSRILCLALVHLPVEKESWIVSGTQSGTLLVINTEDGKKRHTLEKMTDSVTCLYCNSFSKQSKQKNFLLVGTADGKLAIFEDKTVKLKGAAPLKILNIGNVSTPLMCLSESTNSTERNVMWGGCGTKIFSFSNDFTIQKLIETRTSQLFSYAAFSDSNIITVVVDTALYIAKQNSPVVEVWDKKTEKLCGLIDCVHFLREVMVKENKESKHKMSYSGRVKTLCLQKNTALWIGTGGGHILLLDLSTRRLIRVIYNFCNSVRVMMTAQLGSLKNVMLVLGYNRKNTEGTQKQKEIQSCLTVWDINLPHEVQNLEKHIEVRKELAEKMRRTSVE
Transduced cells in the 384-well assay plate were incubated with indicated inhibitors (5X, 5 µL/well) for 60 to 90 minutes. During this time, 6 X lysis buffer (Life Technologies) was supplemented with 30 nM Tb-labeled anti-LRRK2 pSer935 antibody and both protease and phosphatase inhibitor cocktails (Sigma). The complete 6 X lysis buffer was added to each well (5 µL/well) and the plates were incubated at room temperature in the dark for 2 hours. […] A sigmoidal dose-response equation with varying slope was used to fit the data and generate IC50 values. Z′-factor values were calculated as: Z′-factor = 1 - [(3 × stdevno virus +3 × stdevmaxvirus)/(avgmaxvirus – avgno-virus)]. The IC50 values reported in Table 1 are the averaged numbers from three independent experiments.
A general note: In TR-FRET formats the signal depends on donor and acceptor labels being close together.

Series [5] addresses LRRK2 G2019S (Homo sapiens, UniProt Q5S007, G2019S). Description: TR-FRET cellular assay for LRRK2 Ser935 phosphorylation, SH-SY5Y cells, BacMam LRRK2-GFP G2019S (incl. Tocriscreen Mini library screen and follow-up). Format: cell-based. Set-up: This high-throughput assay utilizes cells expressing full-length human LRRK2 with a C-terminal GFP tag (LRRK2-GFP); host or cells: SH-SY5Y cells transduced with BacMam.

Sequence of LRRK2 G2019S (Q5S007 whole entry G2019S): as the sequence (Q5S007 whole entry) above, with G2019S counted along it
T1 sequence (Q5S007 whole entry A2016T/G2019S): as the sequence (Q5S007 whole entry) above, with A2016T, G2019S counted along it

As to `COc1cc(C(=O)N2CCC(N3CCN(C)CC3)CC2)ccc1Nc1ncc2c(n1)N(C)c1ccccc1C(=O)N2C` [LRRK2-IN-1], the “effect of desensitizing mutation A2016T/G2019S on compound-induced dephosphorylation (IP-Western)” value in series [1] is recorded as “rescued phosphorylation”. In addition, the “Ser935 phosphorylation by Western blot” value in series [2] is on record as “significantly reduced”. The IC50 in series [3] is more than 20000 nM; in series [4] (25% BacMam wild-type, 90 min, Figure 3C, read-out: IC50, inhibition of TR-FRET signal (Ser935 phosphorylation)), 170 nM; in series [4] (WT, +/- SD, three independent experiments, * = partial inhibition, read-out: IC50, TR-FRET cell-based assay for Ser935 phosphorylation of LRRK2), 200 nM; in series [5] (SH-SY5Y, 25% BacMam G2019S, 90 min, Figure 3C, read-out: IC50, inhibition of TR-FRET signal (Ser935 phosphorylation)), 40 nM; in series [5] (SH-SY5Y, G2019S, +/- SD, three independent experiments, * = partial inhibition, read-out: IC50, TR-FRET cell-based assay for Ser935 phosphorylation of LRRK2), 60 nM; in series [5] (cryopreserved pretransduced SH-SY5Y cells, 25% BacMam G2019S, 90 min, Figure S3, read-out: IC50 using cryopreserved cells), approximately 40 nM. In addition, the IC50 in series [5] (dose-response follow-up, SH-SY5Y G2019S, three independent experiments, read-out: Cellular TR-FRET Assay IC50 +/-SD) was determined as 70 nM. The inhibition at 10 µM in series [5] (SH-SY5Y, LRRK2-IN-1 positive control used at 10 µM, SH-SY5Y G2019S, read-out: %Inhibition Initial screen (positive control)) is 100%.

One may read the inhibition as the percentage by which the read-out fell short of the control.
